# From patent US8445502B2, “Pharmaceutical formulations comprising salts of a protein kinase inhibitor and methods of using same” (Astex Pharmaceuticals, Inc., priority 2007, dated 2013)
# Read-outs that look alike come from different tables or passages of the source.
# Tests used:
# [1] = Solubility of MP470 and its salts (Table 2); type: physicochemical
# [2] = Solubility of MP470.HCl in common solvents at room temperature; type: physicochemical
# [3] = test system: γ-H2AX levels in OVCAR-3 (ovarian carcinoma) cells; assay: DNA damage by γ-H2AX levels; type: cell-based; settings: single agent 10 μM; control 0.5% DMSO medium
# Method: OVCAR-3 (ovarian carcinoma) cells were treated with MP470 (10 μM), MP470.HCl (10 μM), and/or topotecan (10 μM).
# A549 lung cancer cells = type: in vivo; settings: for tumor growth rate: qd×5×3 wk (vehicle 43)
# Method: MP470 and MP470 HCl were tested against different tumor types in athymic nude mice as summarized below (Table 8). Various formulations and routes were evaluated. HT-29 colorectal cancer cells and SB-CL2 melanoma cells were implanted subcutaneously, while A549 lung cancer cells, MiaPaCa-2 pancreatic cancer cells, TT medullary thyroid cancer cells, and OVCAR-3 ovarian cancer cells were implanted […] in the hind flank of mice. All animals were allowed to develop medium-sized (80-125 mg) tumors, before initiation of dosing. Tumor volume and mouse bodyweight were followed over the course of the study.
# A549 Lung Cancer Model—In 40 nude mice implanted intradermally with A549 lung cancer cells, animals were dosed with vehicle orally, MP470 in 100% corn oil orally, or 5-FU in sterile saline IP. […] […] While MP470 reduced tumor growth rates, treatment of these cells with 5-FU reduced the overall tumor growth rate per day further to 19.5 mm3/d on Day 26.
# To determine whether MP470.HCl in combination with carboplatin increased the anti-tumor activity in xenograft tumors growing in vivo, the agents were administered alone and in combination and tumor growth was monitored. MP470.HCl (50 mg/kg) was combined with carboplatin (30 mg/kg) alone or carboplatin with taxol (20 mg/kg).
# [4] = Single-dose pharmacokinetics in rat (Table 10); type: in vivo
# From the text: MP470 free base has a relative bioavailability of […] as compared to the HCl salt.
# [5] = 28-day chronic oral tolerability and toxicokinetics in dog; type: in vivo; settings: for mean liver weights compared with the control group / mean liver weights relative to brain weights compared with the control group: dosing period; for mean heart weights relative to body weight compared with the control group: recovery period; for AUC / Cmax / half-life: po
# Method: In a chronic tolerability study of MP470 hydrochloride salt in the dog, groups of six male and six female dogs received 0, 30, 100, or 300 mg/kg/day of the test article (Groups 1-4, respectively) for 28 days. MP470.HCl was administered, by capsule, as a dry powder blend with sodium lauryl sulfate. […] In males, increased incidences of emesis and soft feces/diarrhea for Groups 3-4 and discolored and mucoid feces for Groups 2-4 were observed. In females, increased incidences of emesis and mucoid feces for Group 4, increased incidences of soft feces/diarrhea for Groups 3-4, and discolored feces for Groups 2-4 were noted. These clinical abnormalities were not considered adverse. No test article-related effects on body weight or food consumption were observed during the dosing or recovery periods. No test-article related lesions were noted during ophthalmic examinations and all electrocardiograms of the test and control animals were within normal limits. No test article related effects on hematology or urinalysis parameters were observed during the dosing or recovery periods.
# Test article related effects on clinical chemistry parameters during the dosing period were limited to lower mean serum aspartate aminotransferase (75%) and plasma thyroxine (50%) levels for the Group 4 males when compared with the control group. […] Test article related organ weight changes during the recovery period were limited to statistically lower mean heart weights relative to body weight for the Group 3-4 females (85 and 89%, respectively) when compared with the control group.
# There was adequate systemic exposure, in general plasma concentration of the test article increased relatively rapidly after treatment, followed by a steady decline for all dose groups and both sexes. Systemic exposure to the test article, as measured by Cmax and AUC, increased with increasing dose in both sexes, but the increase was generally less than dose proportional. No significant differences in exposure to the test article were observed between male and female dogs. No accumulation of the drug was evident as measured by difference in exposure between day 0 and day 27. The time to reach maximal plasma concentration (t-max) ranged from 2-4 hours for Groups 2 and 3 and ranged from 2-8 hours for Group 4. The terminal half-lives varied widely and ranged from 7-84.7 hours for Group 2, 16-47.7 hours for Group 3 and 10.5-28 hours for Group 4. […] There was a large variability in exposure.
# A NOEL could not be determined; the no-observed-adverse-effect level (NOAEL) was considered to be 300 mg/kg/day (6000 mg/m2/d) for both sexes. A STD could not be calculated in this study and is likely to be higher than 300 mg/kg/day (6000 mg/m2/d).
# [6] = both, beagle, dog, in vivo, 5 days
# Method: In the first study, 2 doses of MP470 were tested, a low dose of 10 mg/kg followed 48 hours later by a dose of 20 mg/kg. Dosage escalation stopped after the 20 mg/kg dose due to observations of adverse clinical signs. After the second dose, the animals were observed everyday for 3 additional days for adverse clinical signs. Over the course of the 5 days of study both dogs gained weight. […] The female dog experienced retching immediately after dosing. Upon administration of the 20 mg/kg dose both the female and male dog experienced unacceptable adverse effects. After three more days of observation both dogs were euthanized and necropsy was performed. The necropsy observations considered abnormal include thrombus observed in the dosing veins of both dogs and possible mild venous congestion in the meningeal vein between brain hemispheres and in the venous sinus on cranial floor of the male animal. From this study the maximally tolerated dose in beagle dogs was determined to be 20 mg/kg.
# [7] = 50 mM PBS buffer, pH 7, aqueous buffer, 50 mM PBS buffer, pH 7, read-out: Solubility (50 mM PBS buffer, pH 7, Exp. 15)
# [8] = water, read-out: Solubility in water
# [9] = Rat, 100 mg/kg PO, Dry Blend, hydrochloride, 100 mg/kg
# [10] = Group 3 females (100 mg/kg/day)
# [11] = Group 4 females (300 mg/kg/day)
# [12] = both sexes, beagle, dog, in vivo, 30 mg/kg/day
# [13] = both sexes, beagle, dog, in vivo, 100 mg/kg/day
# [14] = both sexes, beagle, dog, in vivo, 300 mg/kg/day
compound,measurement,setting,value
"Cl.S=C(NCc1ccc2c(c1)OCO2)N1CCN(c2ncnc3c2oc2ccccc23)CC1 [MP470.HCl, 4-[1]benzofuro[3,2-d]pyrimidin-4-yl-N-(1,3-benzodioxol-5-ylmethyl)piperazine-1-carbothioamide hydrochloride]",Solubility,[1]; [7],0.00328 mg/mL
same,Solubility,[1]; [8],0.0311 mg/mL
same,Solubility,[2]; Benzyl alcohol,48 mg/mL
same,Solubility,[2]; DMF,9 mg/mL
same,Solubility,[2]; DMSO,17 mg/mL
same,Solubility,[2]; Ethanol,0.4 mg/mL
same,Solubility,[2]; Glycerol,4 mg/mL
same,Solubility,[2]; Methanol,3 mg/mL
same,Solubility,[2]; Propylene glycol,4 mg/mL
same,Solubility (mg/mL),[2]; Water,< detectable limit by HPLC
same,Increase in DNA damage (γ-H2AX) over control,[3],did not cause DNA damage
same,Outcome: tumor growth,"A549 lung cancer cells; A459 lung cancer, MP470.HCl PO 50 mg/kg, qd × 21, corn oil, hydrochloride, 50 mg/kg",Dose dependency
same,AUC0→last,"[4]; Rat, 3 mg/kg IV bolus, TV-10",18.81 µg·h/mL
same,Cmax,"[4]; Rat, 3 mg/kg IV bolus, TV-10",8.53 µg/mL
same,Tmax,"[4]; Rat, 3 mg/kg IV bolus, TV-10",0.02 h
same,AUC0→last,"[4]; Rat, 100 mg/kg PO, Corn oil",73.35 µg·h/mL
same,Cmax,"[4]; Rat, 100 mg/kg PO, Corn oil",5.27 µg/mL
same,Tmax,"[4]; Rat, 100 mg/kg PO, Corn oil",4.0 h
same,Cmax,"[4]; Rat, 100 mg/kg PO, Dry Blend",7.19 µg/mL
same,Tmax,"[4]; Rat, 100 mg/kg PO, Dry Blend",9.5 h
same,AUC0→last,[4]; [9],94.31 µg·h/mL
same,AUC0→last (μg · h/mL),[4]; [9],about 94 μg · h/mL
same,Tmax,"[4]; Rat, 100 mg/kg orally, range over vehicles",4.0 to 9.5 h
same,Cmax,"[4]; in vivo, po, Rat, 100 mg/kg orally, range over vehicles, read-out: Cmax",4.6 to 7.2 µg/mL
same,t½β,"[4]; rat, in vivo, iv, 3 mg/kg",0.36 h
same,mean liver weights compared with the control group,[5]; Group 2 females (30 mg/kg/day),124%
same,mean liver weights relative to brain weights compared with the control group,[5]; Group 2 females (30 mg/kg/day),117%
same,mean liver weights compared with the control group,[5]; [10],123%
same,mean liver weights relative to brain weights compared with the control group,[5]; [10],121%
same,mean heart weights relative to body weight compared with the control group,[5]; [10],85%
same,mean liver weights compared with the control group,[5]; [11],119%
same,mean liver weights relative to brain weights compared with the control group,[5]; [11],120%
same,mean heart weights relative to body weight compared with the control group,[5]; [11],89%
same,NOAEL at 28 days,"[5]; beagle, dog, in vivo, dogs, both sexes, 28 days, read-out: no-observed-adverse-effect level (NOAEL)",300 mg/kg/day
same,AUC,[5]; [12],0.0979 to 1.13 µg·h/mL
same,Cmax,[5]; [12],0.0425 to 0.154 µg/mL
same,half-life,[5]; [12],7 to 84.7 h
same,AUC,[5]; [13],0.257 to 2.53 µg·h/mL
same,Cmax,[5]; [13],0.0783 to 0.231 µg/mL
same,half-life,[5]; [13],16 to 47.7 h
same,AUC,[5]; [14],0.559 to 4.89 µg·h/mL
same,Cmax,[5]; [14],0.192 to 0.329 µg/mL
same,half-life,[5]; [14],10.5 to 28 h
same,STD (severely toxic dose),"[5]; both, beagle, dog, in vivo, 28 days",> 6000 mg/m2/d
same,mortalities,"[5]; dogs, 30, 100 or 300 mg/kg/day by capsule, 28 days",no mortalities
same,time to reach maximal plasma concentration (t-max),"[5]; dogs, Group 4 (300 mg/kg/day)",2 to 8 h
same,time to reach maximal plasma concentration (t-max),"[5]; dogs, Groups 2 and 3 (30 and 100 mg/kg/day)",2 to 4 h
same,no-observed-adverse-effect level (NOAEL),"[5]; dogs, both sexes, 28 days",6000 mg/m2/d
"S=C(NCc1ccc2c(c1)OCO2)N1CCN(c2ncnc3c2oc2ccccc23)CC1 [MP470, 4-[1]benzofuro[3,2-d]pyrimidin-4-yl-N-(1,3-benzodioxol-5-ylmethyl)piperazine-1-carbothioamide]",Solubility,[1]; [7],0.00122 mg/mL
same,Solubility,[1]; [8],0.00494 mg/mL
same,Increase in DNA damage (γ-H2AX) over control,[3],did not cause DNA damage
same,Outcome: tumor growth,"A549 lung cancer cells; A549 lung, MP470 PO 50, 100, 200 mg/kg, (qd × 5) × 2 w, corn oil",no apparent dose relationship
same,tumor growth rate,"A549 lung cancer cells; Day 26, 50 mg/kg oral in corn oil",28.3 mm3/d
same,tumor growth rate,"A549 lung cancer cells; Day 26, 100 mg/kg oral in corn oil",34.9 mm3/d
same,tumor growth rate,"A549 lung cancer cells; Day 26, 150 mg/kg oral in corn oil",28.1 mm3/d
same,Cmax,"[4]; Rat, 100 mg/kg PO, Dry Blend",0.71 µg/mL
same,Tmax,"[4]; Rat, 100 mg/kg PO, Dry Blend",11.3 h
same,AUC0→last,"[4]; Rat, 100 mg/kg PO, Dry Blend, 100 mg/kg",7.91 µg·h/mL
same,AUC0→last,"[4]; Rat, 100 mg/kg PO, Dry Blend, listed as MP470 (free base), 100 mg/kg",7.9 µg·h/mL
same,bioavailability,"[4]; in vivo, Rat, 100 mg/kg oral, dry powder blend, read-out: relative bioavailability as compared to the HCl salt",8%
same,maximally tolerated dose,[6],20 mg/kg
